Data taken from paper PMC7465040, “Cytotoxic and Anti-Plasmodial Activities of Stephania dielsiana Y.C. Wu Extracts and the Isolated Compounds” (Molecules, 2020).
Like-named read-outs stand apart in the source and are kept apart here.

Legend:
HeLa = test: SRB cell proliferation assay, HeLa; format: cell-based, human; settings: for IC50: Homo sapiens, HeLa, 72 h, Table 2A, SRB, read-out: IC50 (μM ± SD) HeLa
Description: (§1) In vitro anticancer study: The in vitro anti-proliferative tests were carried out as described previously, using aliquots of the cell lines used therein. Briefly, HeLa, MDA-MB-231 and MDA-MB-468, MCF7, and 184B5 and MCF 10A cell lines were purchased from ATCC. The identity of the cell lines presented in this study were verified by short tandem repeat profiling by Genetica DNA Laboratories (www.celllineauthentication.com) (April 8, 2015). MCF10A was grown in DMEM F12 medium supplemented with 0.02 μg/mL epidermal growth factor, 10% FBS, 10 μg/mL insulin and […] hydrocortisone. MDA-MB-468 were grown in DMEM supplemented with 10% FBS and antibiotics cocktail (100 μg/mL streptomycin, 100 units/mL penicillin and 250 ng/mL amphotericin B). SRB cell proliferation assays were carried out as previously described, with some minor modifications. The concentration range for all tested cell lines were from 100–0.39 μg/mL for extracts and 100–0.39 μM for pure compounds. […] All experiments were carried out at least twice.

MDA-MB-231 = test: SRB cell proliferation assay, MDA-MB-231; format: cell-based, human; settings: for IC50: Homo sapiens, MDA-MB-231, Table 2A, SRB, 72 h, read-out: IC50 (μM ± SD) MDA-MB-231
Description: as §1

MDA-MB-468 = test: SRB cell proliferation assay, MDA-MB-468; format: cell-based, human; settings: for IC50: Homo sapiens, MDA-MB-468, Table 2A, SRB, 72 h, read-out: IC50 (μM ± SD) MDA-MB-468
Description: as §1

MCF7 = test: SRB cell proliferation assay, MCF7; format: cell-based, human; settings: for IC50: Homo sapiens, MCF7, Table 2A, SRB, 72 h, read-out: IC50 (μM ± SD) MCF7
Description: as §1

184B5 = test: SRB cell proliferation assay, 184B5 non-cancer cells; format: cell-based, human; settings: Homo sapiens, 184B5, read-out: IC50 (μM ± SD) 184B5
Description: as §1

MCF 10A = test: SRB cell proliferation assay, MCF10A non-cancer cells; format: cell-based; settings: Homo sapiens, read-out: IC50 (μM ± SD) MCF 10A
Description: as §1

[1] = tested on: chloroquine-susceptible 3D7 P. falciparum strain; test: In vitro anti-plasmodial assay (HRP2 ELISA), 3D7; format: cell-based, Plasmodium falciparum; settings: for IC50: 72 h, HRP2 ELISA, mean of five experiments, read-out: IC50 (μM ± SD) 3D7; for SI 3D7 184B5 / SI 3D7 MCF10A: Table 3; for SI 3D7 184B5: selectivity index between 184B5 and parasites 3D7; for SI 3D7 MCF10A: selectivity index between MCF10A and parasites 3D7
Description: (§2) Parasites were grown in A-positive human blood (Etablissement Français du Sang, Marseille, France) under controlled atmospheric conditions that consisted of 10% O2, 5% CO2, and 85% N2 at 37 °C with a humidity of 95%.
(§3) In vitro anti-plasmodial assay: The two P. falciparum strains 3D7 and W2 were synchronized twice with sorbitol before use. The clonality of these strains was verified both in our laboratory and in an independent laboratory from the Worldwide Anti-malarial Resistance Network (WWARN) by PCR genotyping of the polymorphic genetic markers msp1 and msp2 and microsatellite loci. The compounds were re-suspended in methanol or DMSO 5% (v/v) and then diluted in methanol to obtain final concentrations ranging from 0.008 to 500 μg/mL (final concentration of 0.5% of methanol or DMSO). […] The plates were incubated for 72 h at 37 °C in controlled atmospheric conditions 5% CO2, 10% O2, and […]. After thawing the plates, haemolysed cultures were homogenized by vortexing the plates. Both the success of the drug susceptibility assay and the appropriate volume of haemolysed culture to use for each assay were determined for each clinical isolate during a preliminary HRP2 ELISA. Both the pre-test and subsequent ELISA assays were performed using a commercial kit (Malaria Ag Celisa, ref KM2159, Cellabs PTY LTD, Brookvale, Australia) according to the manufacturer’s recommendation. The optical density (OD) of each sample was measured with a spectrophotometer (Safire 2, Tecan, Lyon, France). […] The anti-plasmodial in vitro assay was performed five times for each product. The IC50 values represented the mean value calculated from five experiments. According to Hout, a selectivity index (SI) was based on the ratio between anti-parasitic and cytotoxic activities. In the case of our study, a SI was calculated between non-tumorigenic cell line 184B5 and parasites 3D7 or W2 and/or MCF10A and these two parasites.

[2] = tested on: chloroquine-resistant W2 P. falciparum strain; test: In vitro anti-plasmodial assay (HRP2 ELISA), W2; format: cell-based, Plasmodium falciparum; settings: for IC50: 72 h, HRP2 ELISA, mean of five experiments, read-out: IC50 (μM ± SD) W2; for SI W2 184B5 / SI W2 MCF10A: Table 3; for SI W2 184B5: selectivity index between 184B5 and parasites W2; for SI W2 MCF10A: selectivity index between MCF10A and parasites W2
Description: as §2, §3

[3] = tested on: HeLa, MDA-MB231, MDA-MB-468, MCF7, 184B5 and MCF10A cell lines; test: SRB cell proliferation assay, whole panel of cell lines; format: cell-based, human
Description: as §1

[4] = tested on: Plasmodium falciparum 3D7 and W2 strains; test: In vitro anti-plasmodial assay, both strains; format: cell-based
Description: as §2, §3

[5] = Plasmodium falciparum, W2, 72 h

Q: Which IC50 (HeLa) does the source give for COc1cc2c(cc1OC)[C@@H]1Cc3ccc(OC)c(OC)c3CN1CC2 [Tetrahydropalmatine 7, tetrahydropalmatine] here?
A: The IC50 was over 50 µM.

Q: And the IC50 (MDA-MB-231)?
A: The IC50 was over 50 µM.

Q: What about the IC50 (MDA-MB-468) of the same compound?
A: Its IC50 is over 50 µM.

Q: And the IC50 (MCF7)?
A: Its IC50 is over 50 µM.

Q: What about the IC50 (184B5; Table 2A, SRB, 72 h) of the same compound?
A: Its IC50 is over 50 µM.

Q: And the IC50 (184B5; Table 3, non-cancer cell line)?
A: Its IC50 is over 50 µM.

Q: What about the IC50 (MCF 10A; Table 2A, SRB, 72 h) of the same compound?
A: The IC50 was over 50 µM.

Q: And the IC50 (MCF 10A; Table 3, non-cancer cell line)?
A: The IC50 was over 50 µM.

Q: And the IC50 [1]?
A: Its IC50 is 276 ± 14.4 µM.

Q: And the “SI 3D7 184B5” value [1]?
A: The value was over 0.18.

Q: And the “SI 3D7 MCF10A” value [1]?
A: The value was over 0.18.

Q: And the IC50 [2]?
A: The IC50 was 226 ± 19.8 µM.

Q: And the IC50 [2, 5]?
A: The IC50 was 216 to 226 µM.

Q: And the “SI W2 184B5” value [2]?
A: Its value is over 0.22.

Q: What about the “SI W2 MCF10A” value [2] of the same compound?
A: Its value is over 0.22.

Q: And the “Anti-proliferative activity (in words)” value [3]?
A: Its value is “did not show any effect”.

Q: And the “Anti-plasmodial activity against both 3D7 and W2 (in words)” value [4]?
A: The value was “not active”.

Q: COc1cccc2c1C(=O)c1c3c-2c2c(cc3cc[n+]1C)OCO2 [Thailandine 2, thailandine] was tested. Which IC50 (HeLa) did it give?
A: The IC50 was 4.1 ± 0.4 µM.

Q: And the “Selectivity index (SI) 184B5 versus HeLa” value (HeLa; Table 2B, non-cancer 184B5 vs cancer HeLa)?
A: The value was 0.73.

Q: And the “Selectivity index (SI) MCF10A versus HeLa” value (HeLa; Table 2B, non-cancer MCF10A vs cancer HeLa)?
A: Its value is 1.20.

Q: What about the IC50 (MDA-MB-231) of the same compound?
A: Its IC50 is 7.11 ± 0.07 µM.

Q: And the “Selectivity index (SI) 184B5 versus MDA-MB-231” value (MDA-MB-231; Table 2B, non-cancer 184B5 vs cancer MDA-MB-231)?
A: The value was 0.42.

Q: And the “Selectivity index (SI) MCF10A versus MDA-MB-231” value (MDA-MB-231; Table 2B, non-cancer MCF10A vs cancer MDA-MB-231)?
A: The value was 0.70.

Q: And the IC50 (MDA-MB-468)?
A: Its IC50 is 0.78 ± 0.12 µM.

Q: And the “Selectivity index (SI) 184B5 versus MDA-MB-468” value (MDA-MB-468; Table 2B, non-cancer 184B5 vs cancer MDA-MB-468)?
A: Its value is 3.90.

Q: And the “Selectivity index (SI) MCF10A versus MDA-MB-468” value (MDA-MB-468; Table 2B, non-cancer MCF10A vs cancer MDA-MB-468)?
A: Its value is 6.40.

Q: And the IC50 (MCF7)?
A: Its IC50 is 1.99 ± 1.36 µM.

Q: And the “Selectivity index (SI) 184B5 versus MCF7” value (MCF7; Table 2B, non-cancer 184B5 vs cancer MCF7)?
A: The value was 1.50.

Q: And the “Selectivity index (SI) MCF10A versus MCF7” value (MCF7; Table 2B, non-cancer MCF10A vs cancer MCF7)?
A: The value was 2.50.

Q: And the IC50 (184B5; Table 2A, SRB, 72 h)?
A: The IC50 was 3.02 ± 0.1 µM.

Q: What about the IC50 (184B5; Table 3, non-cancer cell line) of the same compound?
A: Its IC50 is 3.02 ± 0.1 µM.

Q: What about the IC50 (MCF 10A; Table 2A, SRB, 72 h) of the same compound?
A: Its IC50 is 5.01 ± 0.15 µM.

Q: And the IC50 (MCF 10A; Table 3, non-cancer cell line)?
A: The IC50 was 5.01 ± 0.15 µM.

Q: And the “SI against P. falciparum (3D7 vs. 184B5)” value [1]?
A: Its value is 12.6 fold.

Q: What about the IC50 [1] of the same compound?
A: The IC50 was 0.24 ± 0.04 µM.

Q: And the IC50 ([1]; Plasmodium falciparum, 3D7, 72 h)?
A: The IC50 was 0.22 µM.

Q: What about the “SI 3D7 184B5” value [1] of the same compound?
A: The value was 12.58.

Q: What about the “SI 3D7 MCF10A” value [1] of the same compound?
A: Its value is 20.86.

Q: And the “SI against P. falciparum (W2 vs. MCF10A)” value [2]?
A: Its value is 22.8 fold.

Q: And the IC50 [2]?
A: Its IC50 is 0.22 ± 0.02 µM.

Q: What about the IC50 [2, 5] of the same compound?
A: The IC50 was 0.24 µM.

Q: What about the “SI W2 184B5” value [2] of the same compound?
A: Its value is 13.73.

Q: What about the “SI W2 MCF10A” value [2] of the same compound?
A: Its value is 22.77.

Q: And the IC50 ([3]; Homo sapiens, cancer and non-cancer cell lines, read-out: IC50 values, range over the cell lines examined)?
A: The IC50 was 0.78 to 7.11 µM.

Q: And the “Anti-plasmodial activity against both 3D7 and W2 (in words)” value [4]?
A: Its value is “strong activity”.

Q: What about the “Selectivity index (SI) between cells and parasites” value ([4]; 184B5, MCF10A vs 3D7, W2) of the same compound?
A: Its value is over 12.
